# “And” between values parts separate entries of the source, which are not always exact repeats. Identical values can stand only once. Like-named read-outs stand apart in the source and are kept apart here.
# Tests used:
# MDA-MB-435S cells = assay: Time course of cytotoxicity in MDA-MB-435S cells (MTT); format: cell-based, human; conditions: for IC50: MDA-MB 435S; for incubation time to maximal efficacy: MDA-MB-435S cells
# Description: Membranes of non-cancerous cell lines are neutral and are resistant to cytolytic peptides, in contrast to cancer cell lines, which have a high phosphatidic acid content in their outer membrane.
# The melanoma cell line studied was MDA-MB-435S (estrogen receptor alpha negative), breast cancer cell lines MCF-7 and T47D (estrogen receptor alpha positive), ovarian cancer cell lines (OVCAR-3 and SKOV-3), prostate cancer (LNCaP), the non-malignant breast epithelial cell line MCF-10A and the mouse fibroblast cell line NIH:3T3.
# Cells were seeded into 96 well plates at a density of 10,000 cells/well. […] Controls contained USP saline or 0.1% TritonX-100™ as reference for 0 and 100% cell death, respectively. Incubations were terminated by removing the culture media after 2 minutes, 5 minutes, 15 minutes, 30 minutes, 1 hour, 2 hours, 6 hours, 24 and 48 hours. Cell viability was assessed through formazan conversion assay (MTT assay, (CellTiter 96 Aqueous One, Promega # G3582). Formazan conversion was determined using a BioRad Benchmark Plus microplate spectrophotometer dual wavelengths at 490/630 nm at room temperature).
# Data were calculated as fraction of absorption in TritonX-100™ containing wells representing 100% cell death versus 0% cell death in saline containing wells. Cytotoxicity was determined as ICso using GraphPad Prism version 5.01 for Windows, GraphPad Software, San Diego California USA according to the program for sigmoidal dose response with variable slope using constraint values of 0 and 100%. 4 wells of each individual set of two 96 well plates were compared and analyzed. Statistical analysis for significance was determined by a two-tailed Student's T-test.
# MDA-MB-435S.luc cells = format: cell-based, human
# Description: This example describes screening for cell toxicity (IC50) and hemolytic activity using a human breast cancer cell line.
# The human melanoma cell line MDA-MB-435S.luc, which over expresses chorionic gonadotrophin (CG) and luteinizing hormone-releasing hormone (LHRH) receptors, was used to screen at passage numbers 248-252. The MDA-MB-435S.luc cell line was constructed from the MDA-MB-435S cell line obtained from the American Type Cell Culture Collection by stable transfection with the plasmid PRC/CMV-luc containing the Photinus pyralis luciferase gene and an […] resistance gene by lipofection. The stably transfected cell line was selected using G418 and the clones with the highest expression for the luciferase gene were tested for their LH and LHRH receptor expression.
# MDA-MB-435S.luc cells were grown in Leibovitz's L 15 medium, 10% fetal bovine serum, 0.01 mg/ml bovine insulin, 100 IU/ml penicillin, 100 microg/ml streptomycin. The cells were cultured in tight closed flasks. The incubations were conducted using 96 well plates at 10,000 cells per well. Cells were typically seeded into 96 well plates and media was replaced after 48 hours of incubation. Each assay was conducted at increasing concentrations of 0, 0.001, 0.01, 0.05, 0.1, 0.5, 1, 2, 5, 10 and 100 micromolar doses of lytic peptide-binding domain conjugate. Each lytic peptide-binding domain conjugate provided in lyophilized form and was freshly dissolved in saline and added to cells. The duration of incubation was typically 24 h, and cell viability assays were conducted using formazan conversion assays (MTT assay). Controls contained saline or 0.1% triton as reference for 0 and 100% cell death, respectively.
# Data were processed and analyzed using Graph Pad Prizm 4™ software (Graph Pad Prizm, Inc). Statistical analysis for significance was determined by a two-tailed Student's T-test. Each study was conducted to achieve an N of at least 8.
# [1] = tested on: ID8 murine ovarian carcinoma; assay: Orthotopic ID8 murine ovarian carcinoma syngeneic model; format: in vivo, C57BL/6 mice
# Procedure: Ovarian Cancer Orthotopic Syngeneic Mouse model—Eight-to 12-week-old female C57BL/6 mice were purchased from Taconic Farms, ID8 or IG10 cells at a concentration off 2×10^6 cells/0.2 mL per mouse were injected into the intraperitoneal cavity of C57BL/6. All mouse studies were approved by the Institutional Animal Care and Use Committee and were cared for in accordance with guidelines set forth by the American Association for Accreditation of Laboratory Animals. After cancer cell injection, mice were randomly divided into four treatment groups: 1) untreated control, 2) PD-L1 antibody (200 μg/kg intraperitoneally twice a week), 3) EP-100 (0.2 mg/kg intravenously twice a week) and 4) PD-L1 antibody plus EP-100. Treatment was initiated ten days after cancer cell injection into the intraperitoneal cavity.
# C57BL/6 female mice were injected orthotopically with luciferase labeled ID8 (ID8-L) murine ovarian cancer cell line (1×10^6 cells). Mice were monitored for tumor take using a luminescent imaging system. Treatments started on day 7 after tumor cell injection and continued on days 9, 12, 16, 19, 22, and 26 (FIG. 17A). […] Each treatment and control group consisted of 10 mice. At necropsy on day 28, ascites fluids were removed and measured, and tumors were removed and weighed.
# Significance between treatment groups was assessed using Wilcoxon signed Rank test analysis and ANOVA.
# [2] = MDA-MB-435S.luc cells, 24 h, MTT, read-out: IC50
Sequence,IC50 (MDA-MB-435S cells; 24 hours) [nM],IC50 (MDA-MB-435S cells; 48 hours) [nM],incubation time to maximal efficacy (MDA-MB-435S cells),IC50 (MDA-MB-435S.luc cells; [2]) [nM],reduction of ascites ([1]; ID8) [fold],reduction of live tumor size ([1]; ID8) [fold],reduction of tumor weights ([1]; ID8) [fold],relative reduction of ascites volumes ([1]; ID8) [%],"luminescence counts of tumor at the end of the study ([1]; ID8-luciferase, mean±SD, start 9.2±1.2×10^4)","tumor weights at necropsy ([1]; ID8, Mean±SEM, N=10, controls 1.06±0.08 g) [g]","ascites volumes ([1]; ID8, Mean±SEM, N=10, vehicle 12.26±0.6 ml) [mL]",IC50 (MDA-MB-435S cells; 0.5 hour) [nM],IC50 (MDA-MB-435S cells; 1 hour) [nM],"Increased in vitro activity fold (MDA-MB-435S.luc cells; IC50 of 33 (Phor21-βCG-ala, 2.31 μM)/IC50 peptide, MDA-MB-435S.luc) [fold]","IC50 (MDA-MB-435S.luc cells; MDA-MB-435S.luc cells, places that print μm (Table 2: lytic peptide row + hinge column + ligand section), read-out: IC50) [nM]","IC50 (MDA-MB-435S.luc cells; MDA-MB-435S.luc melanoma cell line, read-out: IC50 in Human Cancer Cell Lines) [nM]"
"KFAKFAKKFAKFAKKFAK [Phor18, reference compound]",55100,3000,24 h,2060 ± 500,–,–,–,–,–,–,–,–,–,–,–,–
KFAKFAKKFAKFAKKFAKQHWSYGLRPG [Phor18-LHRH],–,–,1 h and 0.5 to 1 h,870 ± 110,1.5,2.1,3,35.5,88.6±21.5 ×10^4,0.49 ± 0.07,8.0 ± 0.7,1200,600,2.65,870,860 ± 160
